# Measured values taken from PMC5298231, “The Malaria Parasite's Lactate Transporter PfFNT Is the Target of Antiplasmodial Compounds Identified in Whole Cell Phenotypic Screens” (PLoS Pathogens, 2017).
# “And” between values parts separate entries of the source, which are not always exact repeats. Identical values can stand only once.
# Columns and labels:
# [1] = system: MMV007839-selected culture A (PfFNT Gly107Ser); assay: Parasite proliferation assay, MMV007839-selected culture A; format: cell-based, Plasmodium falciparum; conditions: MMV007839-selected culture A; mean ± SEM; read-out: IC50 value, growth inhibition
# Experimental: (§1) Parasite proliferation was measured in 96-well plates using a fluorescent DNA-intercalating dye. The assays were initiated with erythrocytes infected with predominantly ring-stage parasites, and the starting parasitaemia was 0.5–1% and the haematocrit was 1%.
# For MMV007839-selected culture A, the drug concentration was increased by 5 nM increments on Day 18, Day 21, and every two days thereafter. […] The cultures were provided with fresh medium and blood and diluted to reduce the parasitaemia as needed.
# Dd2 parental parasites = assay: L-[14C]lactate uptake by isolated Dd2 parental parasites; conditions: read-out: IC50, inhibition of L-[14C]lactate uptake; Dd2 (parental) parasites; pH 6.1, 4°C, 20 s; mean ± SEM
# 3D7 parasites [2] = assay: Parasite viability after timed exposure and washout (parasitaemia on Day 3); conditions: 6 μM; for Effect on parasite viability: parasitaemia three days later
# [3] = system: 3D7 P. falciparum trophozoites; assay: Cytosolic pH (pHcyt) measurement in BCECF-loaded saponin-isolated trophozoites
# PfENT1 = assay: [3H]hypoxanthine uptake by Xenopus oocytes expressing PfENT1; format: cell-based, Plasmodium falciparum; conditions: 1 μM and 4 μM; pH 6.0, 30 min
# Text: (§2) (PfCRT; from the chloroquine-resistant Dd2 strain) and on [^3H]hypoxanthine transport by oocytes expressing the P. falciparum equilibrative nucleoside/nucleobase transporter PfENT1 [27, 28].
# The oocyte expression vectors containing PfFNT, PfENT1 and PfCRT were made previously. The Gly107Ser mutant form of PfFNT was generated through site-directed mutagenesis of the oocyte expression vector containing wild-type (3D7) PfFNT using primers 9 and 10 (S2 Table). Oocytes were harvested from adult female Xenopus laevis frogs and prepared as described previously. cRNA was made using the mMessage mMachine T7 transcription kit and the MEGAclear kit (Ambion) and microinjected into oocytes as outlined elsewhere. The amount of cRNA injected (per oocyte) was 30 ng for PfFNT, 10 ng for PfENT1, and 20 ng for PfCRT. The uptake of radiolabelled substrates was measured 2–5 days post-injection at 27.5°C in ND96 buffer (containing 96 mM NaCl, 2 mM KCl, 1 mM MgCl2, 1.8 mM CaCl2, 10 mM MES and 10 mM Tris-base; pH-adjusted to the value specified in the relevant Figure legends). […] Each experiment used ten oocytes for each condition tested. The influx of the radiolabelled substrate was halted by removing the reaction buffer and washing the oocytes twice in ice-cold ND96 buffer (3.5 mL). The oocytes were then transferred to separate wells of a 96-well plate, lysed with 10% SDS, and the radioactivity measured as described previously.
# The data are averaged from four to five independent experiments (performed using oocytes from different frogs) and are shown + SEM. In B, the uptake of [^3H]hypoxanthine (0.36 μM) was measured over 30 min at pH 6.0. […] The data are averaged from three to six independent experiments (performed using oocytes from different frogs) and are shown + SEM. […] (TIF) Click here for additional data file.
# [4] = ref [36]; cited from earlier work
# Dd2 parent parasites = assay: Parasite proliferation assay, Dd2 parent; format: cell-based, Plasmodium falciparum; conditions: Dd2 parent; mean ± SEM; read-out: IC50 value, growth inhibition
# Experimental: Parasite proliferation was measured in 96-well plates using a fluorescent DNA-intercalating dye [45]. The assays were initiated with erythrocytes infected with predominantly ring-stage parasites, and the starting parasitaemia was 0.5–1% and the haematocrit was 1%.
# [5] = system: PfCRT (from the chloroquine-resistant Dd2 strain); assay: [3H]chloroquine uptake by Xenopus oocytes expressing PfCRT; format: cell-based, Plasmodium falciparum; conditions: 1 μM and 4 μM; pH 5.5
# Text: as §2
# The oocyte expression vectors containing PfFNT, PfENT1 and PfCRT were made previously. The Gly107Ser mutant form of PfFNT was generated through site-directed mutagenesis of the oocyte expression vector containing wild-type (3D7) PfFNT using primers 9 and 10 (S2 Table). Oocytes were harvested from adult female Xenopus laevis frogs and prepared as described previously. cRNA was made using the mMessage mMachine T7 transcription kit and the MEGAclear kit (Ambion) and microinjected into oocytes as outlined elsewhere. […] The uptake of radiolabelled substrates was measured 2–5 days post-injection at 27.5°C in ND96 buffer (containing 96 mM NaCl, 2 mM KCl, 1 mM MgCl2, 1.8 mM CaCl2, 10 mM MES and 10 mM Tris-base; pH-adjusted to the value specified in the relevant Figure legends). […] The oocytes were then transferred to separate wells of a 96-well plate, lysed with 10% SDS, and the radioactivity measured as described previously.
# The data are averaged from four to five independent experiments (performed using oocytes from different frogs) and are shown + SEM. In B, the uptake of [^3H]hypoxanthine (0.36 μM) was measured over 30 min at pH 6.0. […]
# native PfFNT = target: T1, native PfFNT (Plasmodium falciparum, UniProt O77389); format: cell-based; conditions: native PfFNT in Xenopus oocytes; pH 6.4, 27.5°C, 10 min; mean ± SEM, n = 4; read-out: IC50, inhibition of PfFNT-mediated L-[14C]lactate transport
# T1 construct: expressed in transfected cells; host or cells: Xenopus laevis oocytes (cRNA microinjected, 30 ng)
# T1 sequence (O77389 whole entry): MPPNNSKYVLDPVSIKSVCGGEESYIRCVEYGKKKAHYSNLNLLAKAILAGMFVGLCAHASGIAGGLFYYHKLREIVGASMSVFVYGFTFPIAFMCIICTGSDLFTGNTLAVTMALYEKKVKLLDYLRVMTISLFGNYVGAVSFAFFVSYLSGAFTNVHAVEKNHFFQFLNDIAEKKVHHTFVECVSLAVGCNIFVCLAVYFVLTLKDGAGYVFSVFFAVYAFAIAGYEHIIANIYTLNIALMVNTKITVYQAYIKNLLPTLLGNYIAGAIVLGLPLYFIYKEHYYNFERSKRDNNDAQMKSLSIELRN
# Experimental: The PfFNT-mediated uptake of L-[^14C]lactate by oocytes expressing native PfFNT (black symbols) or oocytes expressing PfFNT^Gly107Ser (white symbols) was measured in the presence of a range of different concentrations of MMV007839 (A) and MMV000972 (B). […] To enable a visual comparison between the native PfFNT and PfFNT^Gly107Ser datasets, only part of the concentration range used for the latter is shown in the main panels. The insets show the data obtained for PfFNT^Gly107Ser over the full concentration range tested. In all cases, the data are averaged from four independent experiments (using oocytes from different frogs) and are shown ± SEM. The uptake was measured at 27.5°C over 10 min at pH 6.4 using 2.7 μM L-[^14C]lactate and 600 μM unlabelled L-lactate.
# The oocyte expression vectors containing PfFNT, PfENT1 and PfCRT were made previously. […] The uptake of radiolabelled substrates was measured 2–5 days post-injection at 27.5°C in ND96 buffer (containing 96 mM NaCl, 2 mM KCl, 1 mM MgCl2, 1.8 mM CaCl2, 10 mM MES and 10 mM Tris-base; pH-adjusted to the value specified in the relevant Figure legends). […] The oocytes were then transferred to separate wells of a 96-well plate, lysed with 10% SDS, and the radioactivity measured as described previously.
# 3D7 parasites [6] = assay: Parasite proliferation assay, 3D7; format: cell-based, Plasmodium falciparum; conditions: 3D7 (our laboratory); mean ± SEM; read-out: IC50 value, growth inhibition
# Experimental: as §1
# [7] = system: isolated 3D7 P. falciparum trophozoites; assay: L-[14C]lactate uptake by isolated 3D7 trophozoites; conditions: pH 6.1, 4°C, 20 s
smiles,measurement,setting,value
COc1ccc2c(c1)OC(O)(C(F)(F)C(F)(F)F)CC2=O (stereo not drawn) [MMV007839],IC50,[1],35800 ± 2700 nM
same,IC50,Dd2 parental parasites,158 ± 42 nM
same,Effect on parasite viability,3D7 parasites [2]; 1 h exposure,did not significantly affect
same,Effect on parasite viability,3D7 parasites [2]; 3 h exposure,did not significantly affect
same,"Parasitaemia three days after exposure, of control levels","3D7 parasites [2]; 6 h exposure, mean ± SEM, n = 3",49 ± 7%
same,Lactate-induced abrupt acidification of parasite cytosol after pre-treatment,"[3]; 2.5 μM pre-treatment, 10 mM L-lactate, 4°C",no such abrupt acidification
same,Rate of cytosolic acidification after addition of lactate,"[3]; 2.5 μM, 4°C, 10 mM L-lactate, mean ± SEM, n = 3",0.011 ± 0.004 pH unit/min
same,Rate of cytosolic acidification before addition of lactate,"[3]; 2.5 μM, 4°C, mean ± SEM, n = 3",0.011 ± 0.003 pH unit/min
same,Cytosolic pH restored after restoration of glucose,"[3]; 2.5 μM, glucose (22 mM) restored to glucose-deprived parasites, gradual alkalinisation after initial acidification of ~2 min",approximately 7.1
same,Effect on cytosolic pH in glucose-containing medium,"[3]; glucose-containing medium, 37°C (Fig 2B,C: 1 μM)",cytosolic acidification
same,Inhibition of [3H]hypoxanthine uptake by PfENT1-expressing oocytes,PfENT1,not inhibiting
same,Toxicity in Malaria Box toxicity testing,[4],display toxicity in some assays
same,IC50,Dd2 parent parasites,140 ± 20 nM
same,Effect on transport of [3H]chloroquine via PfCRT,[5],not inhibiting
same,IC50,native PfFNT,22.5 nM and 23 nM
same,IC50,3D7 parasites [6],260 ± 30 nM
same,Inhibition of L-[14C]lactate influx,[7]; 0.5 μM,inhibited L-[^14C]lactate influx to a similar degree
same,Inhibition of L-[14C]lactate uptake,[7]; 2 μM,complete inhibition
